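Step 1: Grow cells in 96-well plates. Step 2: Expose to compound for 48 hours at 5 concentrations. Step 3: Interpolate endpoints linearly; if unreached, use highest concentration. GI50 = concentration required for 50% inhibition of growth. TGI: concentration producing complete growth inhibition.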

Test in all cases: NCI-60 cell line screen, 48 h
Experiment [1] concerns SK-MEL-2 melanoma.
For experiment [2], the system named is SW-620 colon.
Experiment [3] has as its system U251 CNS.
Experiment [4] has as its system COLO 205 colon.
The test system of experiment [5] is M14 melanoma.
Experiment [6] deals with SK-OV-3 ovarian.
Experiment [7] deals with SNB-75 CNS.
The subject of experiment [8] is HOP-62 NSCLC.
Experiment [9] relates to SF-268 CNS.
In experiment [10] the test system is KM12 colon.

As for `COc1cc(C2C(C(=O)O)=C(COC(C)=O)Oc3cc4c(cc32)OCO4)cc(OC)c1OC` (stereo unspecified), the TGI in [1], in experiment [2], in [3], in experiment [4], in [5] and in experiment [6] was more than 100 µM in each case. Besides, the TGI in experiment [7] and in experiment [8] was more than 100 µM throughout.
With `O=C1/C(=C/c2ccc(Cl)cc2)N=C(c2ccccc2)N1CCc1cccs1`, the GI50 in [1] is 14 µM; in experiment [2], 30.6 µM; in [3], 22.4 µM; in experiment [4] it was 16 µM; in [6] it was 55.9 µM; in experiment [9], 31.7 µM. In addition, the GI50 in experiment [7] was 50.9 µM; in [8] it was 47.3 µM; in experiment [10] it was 22 µM. In addition, the TGI in [1] was more than 100 µM; in [2] it was more than 100 µM; in experiment [3], more than 100 µM; in [4], 39.9 µM; in experiment [6] it was more than 100 µM; in experiment [9], more than 100 µM. In addition, the TGI in [7], in experiment [8] and in experiment [10] was more than 100 µM each time.
`N=C(N)SCc1ccc(Cl)cc1Cl` (tested in a mixture with another compound): the TGI came out at 27.5 µM in [1]; 37.6 µM in experiment [2]; 28.5 µM in [3]; 39.6 µM in [4]; 26.9 µM in [5]; 40.2 µM in experiment [6]. Also, the TGI in experiment [9] turned out to be 40 µM; in [7], 30.9 µM; in [8], 30.2 µM; in experiment [10], 28.2 µM.
Regarding `CCCCCCOP(=O)(OCCCCCC)C(NC(=O)OCC)(C(F)(F)F)C(F)(F)F`, the TGI in experiment [1] was 72.2 µM; in experiment [2], more than 100 µM; in [3] it was more than 100 µM; in experiment [4] it was 32.3 µM; in [5], more than 100 µM; in [6] it was more than 100 µM. For the same compound, the TGI in [9], in experiment [7], in experiment [8] and in experiment [10] was more than 100 µM in each case.
For `CO/N=C(\C)COc1ccc2c(=O)c(-c3ccccc3)coc2c1`, the GI50 in experiment [2] is more than 100 µM; in experiment [3], 32.2 µM; in experiment [4] it was 11.2 µM; in experiment [5], 93.7 µM; in experiment [6], 21.9 µM; in experiment [9], 24.5 µM. Also, the values for the GI50 in experiment [7], in experiment [8] and in [10] were 20 µM, 17.8 µM and more than 100 µM, respectively. For the same compound, the TGI was more than 100 µM in experiment [2]; more than 100 µM in experiment [3]; 32.4 µM in [4]; more than 100 µM in experiment [5]; 80 µM in [6]; 71 µM in [9]. For the same compound, the TGI was 81.6 µM in experiment [7], 46.6 µM in experiment [8] and more than 100 µM in experiment [10].
For the compound `CN(C)c1ccc(C(Cc2ccc3ccccc3n2)Cc2ccc3ccccc3n2)cc1`, in experiment [7], the GI50 is 3.24 µM and the TGI is more than 100 µM. Further, in [8], the GI50 was 5.84 µM and the TGI was more than 100 µM.
`CCOC(=O)C(O)(NC(=O)c1ccccc1F)C(F)(F)F` (stereo unspecified): the TGI in experiment [1], in [2], in [3], in experiment [4], in [5] and in experiment [6] was more than 100 µM throughout. Moreover, the TGI in experiment [9], in experiment [7], in [8] and in experiment [10] was more than 100 µM throughout.
`CC(C)C1=CCC2C(=C1)CCC1C(C)(C(=O)O)CCCC21C` (stereo unspecified) (tested in a mixture with another compound): the TGI in experiment [1], in experiment [2], in [3], in experiment [4], in [5] and in [6] was more than 100 µM in each case. Moreover, the TGI in experiment [9], in experiment [7], in experiment [8] and in experiment [10] was more than 100 µM throughout.
In the case of `O=C(O)c1cn2c3c(cc(N4CCN(CCO)CC4)cc3c1=O)SCC2`, the TGI in experiment [1], in [2], in experiment [3], in experiment [4], in [6] and in experiment [9] was more than 100 µM each time. Besides, the TGI in experiment [7] was more than 66.5 µM; in [8] it was more than 100 µM; in experiment [10] it was more than 100 µM.
In the case of `CNC(=O)N(C)COC`, the TGI in experiment [1], in experiment [2], in experiment [3], in experiment [4], in experiment [5] and in [6] was more than 100 µM in each case. The TGI in experiment [9], in experiment [7], in experiment [8] and in experiment [10] was more than 100 µM each time.
For `Cc1c2cnccc2c(C)c2c1c1ccccc1n2CCCCCCNCc1ccccc1`, the TGI was 4.24 µM in [1]; 1.67 µM in [2]; 3.79 µM in experiment [3]; 3.07 µM in experiment [4]; 7.24 µM in experiment [6]; 2.76 µM in experiment [9]. Besides, the results for the TGI in experiment [7], in experiment [8] and in experiment [10] were 3.9 µM, 7.14 µM and 3.08 µM, respectively.

For the origin of these results see PubChem BioAssay (NCI).
